# Data reported in ChEMBL document CHEMBL1154541, “Synthesis of H-bonding probes of alpha7 nAChR agonist selectivity” (Bioorg Med Chem Lett, 2009).
# Activity calls are given as the source filed them. No cut-off for these calls is given here.
# What was measured:
# Format in all cases: functional, cell-based
# Conditions in all cases: Oocyte
# [1] = target: Acetylcholine receptor subunit alpha (Homo sapiens) (UniProt P02708); experiment: Agonist activity to alpha-1-beta-1-epsilon-delta nAChR expressed in Xenopus oocytes assessed as response current at 100 uM by two-electrode voltage clamp relative to acetylcholine
# Acetylcholine receptor subunit alpha (Homo sapiens), sequence (P02708 whole entry): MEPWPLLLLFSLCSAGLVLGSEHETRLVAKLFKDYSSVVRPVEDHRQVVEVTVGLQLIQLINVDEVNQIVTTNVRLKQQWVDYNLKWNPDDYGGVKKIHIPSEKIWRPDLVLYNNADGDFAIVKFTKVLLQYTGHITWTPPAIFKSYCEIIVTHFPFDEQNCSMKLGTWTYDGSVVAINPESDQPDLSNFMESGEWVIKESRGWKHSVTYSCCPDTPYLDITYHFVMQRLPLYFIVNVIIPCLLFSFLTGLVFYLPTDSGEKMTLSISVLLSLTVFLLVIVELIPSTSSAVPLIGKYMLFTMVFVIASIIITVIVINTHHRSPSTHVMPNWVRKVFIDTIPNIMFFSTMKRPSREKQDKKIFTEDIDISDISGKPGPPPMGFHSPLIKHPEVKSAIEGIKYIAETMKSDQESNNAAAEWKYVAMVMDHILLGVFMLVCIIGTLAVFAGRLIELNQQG
# [2] = target: Neuronal acetylcholine receptor subunit alpha-7 (Homo sapiens) (UniProt P36544); experiment: Agonist activity to alpha7 nAChR expressed in Xenopus oocytes assessed as response current at 1mM by two-electrode voltage clamp relative to acetylcholine
# Neuronal acetylcholine receptor subunit alpha-7 (Homo sapiens), sequence (P36544 whole entry): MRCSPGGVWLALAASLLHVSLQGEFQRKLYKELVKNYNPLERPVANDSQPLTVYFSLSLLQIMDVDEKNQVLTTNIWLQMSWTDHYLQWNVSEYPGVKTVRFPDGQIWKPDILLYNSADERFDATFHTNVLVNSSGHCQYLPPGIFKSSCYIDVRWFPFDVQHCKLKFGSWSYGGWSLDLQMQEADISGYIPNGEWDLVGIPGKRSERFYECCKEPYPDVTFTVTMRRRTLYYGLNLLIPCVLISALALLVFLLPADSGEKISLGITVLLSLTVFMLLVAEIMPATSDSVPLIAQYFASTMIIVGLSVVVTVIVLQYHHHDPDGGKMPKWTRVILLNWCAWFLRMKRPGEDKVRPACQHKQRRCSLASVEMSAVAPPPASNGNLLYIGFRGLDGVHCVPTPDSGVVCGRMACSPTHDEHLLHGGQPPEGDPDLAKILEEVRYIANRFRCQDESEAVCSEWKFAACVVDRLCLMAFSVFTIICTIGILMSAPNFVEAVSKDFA
# [3] = target: Neuronal acetylcholine receptor; alpha4/beta2 (Homo sapiens) (UniProt P17787+P43681); experiment: Agonist activity to alpha4beta2 nAChR expressed in Xenopus oocytes assessed as response current at 100 uM by two-electrode voltage clamp relative to acetylcholine
# [4] = target: Neuronal acetylcholine receptor subunit alpha-7 (Homo sapiens) (UniProt P36544); experiment: Agonist activity to alpha7 nAChR expressed in Xenopus oocytes assessed as response current at 100 uM by two-electrode voltage clamp relative to acetylcholine
# [5] = target: Neuronal acetylcholine receptor subunit alpha-7 (Homo sapiens) (UniProt P36544); experiment: Agonist activity to alpha7 nAChR expressed in Xenopus oocytes assessed as response current by two-electrode voltage clamp relative to acetylcholine
# [6] = target: Neuronal acetylcholine receptor; alpha3/beta4 (Homo sapiens) (UniProt P30926+P32297); experiment: Agonist activity to alpha3beta4 nAChR expressed in Xenopus oocytes assessed as response current at 100 uM by two-electrode voltage clamp relative to acetylcholine
SMILES,Activity [1],Activity [2],Activity [3],Activity [4],ED50 [5],Activity [6]
C(=C1/CCCN=C1c1cccnc1)/c1ccccn1,inactive,< 20%,inactive,–,–,–
C(=C1/CCCN=C1c1cccnc1)/c1cccnc1,inactive,–,inactive,35%,100 µM,–
C(=C1/CCCN=C1c1cccnc1)/c1ccc[nH]1,inactive,–,inactive,40%,–,–
C(=C1/CCCN=C1c1cccnc1)/c1ccncc1,inactive,< 20%,inactive,–,–,–
C(=C1/CCCN=C1c1cccnc1)/c1cc[nH]c1,–,–,–,40%,–,5%
